This assay deals with Human Platelet Aggregation. Briefly: in vitro human platelet aggregation using PRP (collagen-induced, light transmittance). Format: cell-based. To be noted: aggregation induced with collagen (final concentration: 5 µ g/ml), 37°C. The source says:
(Measurement of in vitro Human Platelet Aggregation using PRP)
Healthy male volunteers who had not taken any medicines for at least two weeks were selected as subjects. Blood was collected from the forearm vein of each subject on an empty stomach using a #19 needle and a plastic syringe preliminarily charged with 1/10 volume of a 3.8% sodium citrate solution. Immediately after the blood collection, the syringe was shaken gently to mix the blood with the sodium citrate solution. The mixed blood was centrifuged (1100 rpm, 250 g) at room temperature for 15 minutes and the rotation was stopped without applying the brake. Then, the supernatant was collected with a Komagome type pipette to obtain platelet-rich plasma (PRP). The PRP was stored at room temperature. The blood remaining after centrifuging was further centrifuged (3500 rpm, 1500 g) at room temperature for 15 minutes and the rotation was stopped without applying the brake. The supernatant was collected to obtain platelet-poor plasma (PPP). After the preparation of the PRP, the number of platelets was counted and only samples containing more than 2 x 10^8 of platelets per milliliter were subjected to the following experiments.
Platelet aggregation was measured using an 8-channel platelet aggregation measuring instrument (Hematracer, Nikoh Bioscience, Tokyo, Japan) on the basis of the change in light transmittance through the PRP. First, the PPP and PRP (each 200µl) were placed in glass cuvettes and incubated at 37°C . Thereafter, the transmittance was measured. The transmittance of the PPP was determined as 100% and that of the PRP as 0%. Then, 10µl of physiological saline or a sample-containing physiological saline was added to the PRP and incubated at 37°C for one minute. A collagen solution (10 µ l) at a concentration of […] was added (final concentration: 5 µ g/ml) to induce aggregation and thereafter the transmittance was measured over 7 minutes. After aggregation with collagen and ADP was confirmed, only those samples in which the maximum aggregation with collagen was at least 70% were subjected to the experiment.
The sample was dissolved in physiological saline to give a concentration of 2.2 x 10 ^-2 M and a 2-fold dilution series was prepared for use in the experiments. The samples insoluble in the physiological saline were dissolved in physiological saline containing 10% DMSO (dimethyl sulfoxide).
The results were calculated as follows: [formula]
A graph was constructed by plotting the percent aggregation inhibition against the sample concentration and the concentration at which the aggregation was inhibited by 50% (IC50) was calculated from the graph.
In the case of `CCCC(NC(=O)c1ccc(C(=N)N)cc1)C(C)(C)C(=O)N1CCC(CC(=O)O)CC1` (stereo not drawn) [Example 4, N-(N-4-amidinobenzoyl-β-n-propyl-α,α-dimethyl-β-alanyl)-4-piperidineacetic acid], the IC50 – broadly, the concentration at which inhibition is half-maximal – turned out to be 89 nM.

Compound `C#CC(NC(=O)c1ccc(C(=N)N)cc1)C(C)(C)C(=O)N1CCC(CC(=O)O)CC1` (stereo not drawn) [Example 38, N-(N-4-amidinobenzoyl-β-ethynyl-α,α-dimethyl-β-alanyl)-4-piperidineacetic acid] displayed an IC50 of 150 nM. To `CC(C)CC(NC(=O)c1ccc(C(=N)N)cc1)C(C)(C)C(=O)N1CCC(CC(=O)O)CC1` (stereo not drawn) [Example 24, N-(N-4-amidinobenzoyl-β-i-butyl-α,α-dimethyl-β-alanyl)-4-piperidineacetic acid] belongs 80 nM. In the case of `CC(C)(C(=O)N1CCC(CC(=O)O)CC1)C(CCc1cccc(O)c1)NC(=O)c1ccc(C(=N)N)cc1` (stereo not drawn) [Example 37, N-(N-4-amidinobenzoyl-β-m-hydroxyphenethyl-α, α-dimethyl-β-alanyl)-4-piperidineacetic acid] it was 190 nM; in that of `CN(C)c1ccc(C(NC(=O)c2ccc(C(=N)N)cc2)C(C)(C)C(=O)N2CCC(CC(=O)O)CC2)cc1` (stereo not drawn) [Example 31, N-(N-4-amidinobenzoyl-β-p-N,N-dimethylaminophenyl-α, α-dimethyl-β-alanyl)-4-piperidineacetic acid], 470 nM. To `CC(C)(C(=O)N1CCC(CC(=O)O)CC1)C(CC1CCCCC1)NC(=O)c1ccc(C(=N)N)cc1` (stereo not drawn) [Example 12, N-(N-4-amidinobenzoyl-β-cyclohexylmethyl-α, α-dimethyl-β-alanyl)-4-piperidineacetic acid] belongs 170 nM; to `CCCCCC(NC(=O)c1ccc(C(=N)N)cc1)C(C)(C)C(=O)N1CCC(CC(=O)O)CC1` (stereo not drawn) [Example 7, N-(N-4-amidinobenzoyl-β-normal-pentyl-α,α -dimethyl-β-alanyl)-4-piperidineacetic acid], 170 nM; to `CCC(C(=O)N1CCC(CC(=O)O)CC1)C(/C=C/c1ccccc1)NC(=O)c1ccc(C(=N)N)cc1` (stereo not drawn) [Comparative Example 6, N-(N-4-amidinobenzoyl-β-trans-styryl-α-ethyl-β-alanyl)-4-piperidineacetic acid, reference compound], 85000 nM.

`CC(C)(C(=O)N1CCC(CC(=O)O)CC1)C(NC(=O)c1ccc(C(=N)N)cc1Cl)c1ccccc1` (stereo not drawn) [Example 34, N-(N-4-amidino-2-chlorobenzoyl-β-phenyl-α, α-dimethyl-β-alanyl)-4-piperidineacetic acid] gave a concentration for half-maximal inhibition (IC50) of 360 nM. To `CN(C(=O)c1ccc(C(=N)N)cc1)C(c1ccccc1)C(C)(C)C(=O)N1CCC(CC(=O)O)CC1` (stereo not drawn) [Example 21, N-(N-4-amidinobenzoyl-N-methyl-β-phenyl-α, α-dimethyl-β-alanyl)-4-piperidineacetic acid] belongs 330 nM; to `CCC(CNC(=O)c1ccc(C(=N)N)cc1)C(=O)N1CCC(CC(=O)O)CC1` (stereo not drawn) [Comparative Example 4, N-(N-4-amidinobenzoyl-α-ethyl-β -alanyl)-4-piperidineacetic acid, reference compound], 890 nM. With `N=C(N)c1ccc(C(=O)NC(CC(=O)N2CCC(CC(=O)O)CC2)c2ccccc2)cc1` (stereo not drawn) [Comparative Example 3, N-(N-4-amidinobenzoyl-β-phenyl-β -alanyl)-4-piperidineacetic acid, reference compound], the midpoint of inhibition, the IC50, lay at 5200 nM.

As for `CC(C)(C(=O)N1CCC(CC(=O)O)CC1)C(NC(=O)c1ccc(C(=N)N)cc1)C1CC1` (centres unmarked) [Example 17], half-maximal inhibition (IC50) required 180 nM. In the case of `CC=CC(NC(=O)c1ccc(C(=N)N)cc1)C(C)(C)C(=O)N1CCC(CC(=O)O)CC1` (stereo not drawn) [Example 29, N-(N-4-amidinobenzoyl-β-1-propenyl-α,α-dimethyl-β-alanyl)-4-piperidineacetic acid] it was 100 nM; in that of `CC(NC(=O)c1ccc(C(=N)N)cc1F)C(C)(C)C(=O)N1CCC(CC(=O)O)CC1` (stereo not drawn) [Example 40, N-(N-4-amidino-2-fluorobenzoyl-β-methyl-α, α-dimethyl-β-alanyl)-4-piperidineacetic acid], 75 nM.

`CC(C)(C(=O)N1CCC(CC(=O)O)CC1)C(NC(=O)c1ccc(C(=N)N)cc1)c1cccc(Cl)c1` (stereo not drawn) [Example 9, N-(N-4-amidinobenzoyl-β-m-chlorophenyl-α,α -dimethyl-β-alanyl)-4-piperidineacetic acid] displayed an IC50 of 180 nM.

Compound `CCCCC(NC(=O)c1ccc(C(=N)N)cc1)C1(C(=O)N2CCC(CC(=O)O)CC2)CCCCC1` (centres unmarked) [Example 30, N-(((N-4-amidinobenzoyl)-1-amino)-1-pentyl-1-cyclohexane-carbonyl)-4-piperidineacetic acid] yielded an IC50 of 160 nM.

`CC(C)(CNC(=O)c1ccc(C(=N)N)cc1)C(=O)N1CCC(CC(=O)O)CC1` [Example 1, N-(N-4-amidinobenzoyl-α,α-dimethyl-β-alanyl)-4-piperidineacetic acid] returned an IC50 of 570 nM. As to `CCC(C(=O)N1CCC(CC(=O)O)CC1)C(NC(=O)c1ccc(C(=N)N)cc1)c1ccccc1` (stereo not drawn) [Comparative Example 5, N-(N-4-amidinobenzoyl-β-phenyl-α -ethyl-β-alanyl)-4-piperidineacetic acid, reference compound], inhibition was half-maximal at 16000 nM (IC50). For the compound `CC(C)(C(=O)N1CCN(CC(=O)O)CC1)C(NC(=O)c1ccc(C(=N)N)cc1)c1ccccc1` (stereo not drawn) [Example 23, N-(N-4-amidinobenzoyl-β-phenyl-α,α-dimethyl-β-alanyl)-4-piperazineacetic acid], the IC50 came out at 620 nM.

`CCCCC(NC(=O)c1ccc(C(=N)N)cc1F)C(C)(C)C(=O)N1CCC(CC(=O)O)CC1` (stereo not drawn) [Example 33, N-(N-4-amidino-2-fluorobenzoyl-β-n-butyl-α ,α-dimethyl-β-alanyl)-4-piperidineacetic acid] came in with an IC50 of 73 nM.

As for `CC(C)C(NC(=O)c1ccc(C(=N)N)cc1)C(C)(C)C(=O)N1CCC(CC(=O)O)CC1` (stereo not drawn) [Example 5, N-(N-4-amidinobenzoyl-β-isopropyl-α,α-dimethyl-β-alanyl)-4-piperidineacetic acid], the IC50 was found to be 190 nM. In the case of `CC(C)C(C(=O)N1CCC(CC(=O)O)CC1)C(NC(=O)c1ccc(C(=N)N)cc1)c1ccccc1` (stereo not drawn) [Comparative Example 8, N-(N-4-amidinobenzoyl-β-phenyl-α -isopropyl-β-alanyl)-4-piperidineacetic acid, reference compound] it was 82000 nM; in that of `CC(C)(C(=O)N1CCC(CC(=O)O)CC1)C(C=Cc1ccccc1)NC(=O)c1ccc(C(=N)N)cc1` (stereo not drawn) [Example 14, N-(N-4-amidinobenzoyl-β-styryl-α,α-dimethyl-β-alanyl)-4-piperidineacetic acid], 460 nM. To `CC(NC(=O)c1ccc(C(=N)N)cc1)C(C)(C)C(=O)N1CCC(CC(=O)O)CC1` (stereo not drawn) [Example 22, N-(N-4-amidinobenzoyl-β-methyl-α,α-dimethyl-β-alanyl)-4-piperidineacetic acid] belongs 520 nM; to `CC(C)(C(=O)N1CCC(CC(=O)O)CC1)C(NC(=O)c1ccc(C(=N)N)cc1)C1CCNCC1` (stereo not drawn) [Example 15, N-(N-4-amidinobenzoyl-β-(4-piperidyl)-α, α-dimethyl-β-alanyl)-4-piperidineacetic acid], 180 nM.
